# Assay results reported in ChEMBL document CHEMBL4433239, “Synthesis of N'-propylhydrazide analogs of hydroxamic inhibitors of histone deacetylases (HDACs) and evaluation of their impact on activities of HDACs and replication of hepatitis C virus (HCV)” (Bioorg Med Chem Lett, 2019).
# Active and inactive are the calls of the source. No cut-off for these calls is given here.
# What was measured:
# [1] = Cytotoxicity against human HuH7 cells assessed as reduction in cell viability incubated for 3 days by MTT assay; assay type: cell-based, Huh-7
# Hepatitis C virus = assay: Antiviral activity against HCV infected in human HuH7-luc/neo cells assessed as inhibition of DNA replication incubated for 3 days by luciferase reporter gene assay; assay type: functional, organism-based, Hepacivirus hominis; settings: 72 h
# [2] = Therapeutic index, ratio of CC50 for human HuH7 cells to EC50 for antiviral activity against HCV infected in human HuH7-luc/neo cells assessed as inhibition of DNA replication i
# [3] = target: Histone deacetylase 3 (Homo sapiens) (UniProt O15379); assay: Inhibition of HDAC3 in human Huh7-luc/neo cells assessed as increase in histone H3 K9 acetylation incubated for 24 hrs by Western blot analysis
# Histone deacetylase 3 (Homo sapiens), sequence (O15379 whole entry): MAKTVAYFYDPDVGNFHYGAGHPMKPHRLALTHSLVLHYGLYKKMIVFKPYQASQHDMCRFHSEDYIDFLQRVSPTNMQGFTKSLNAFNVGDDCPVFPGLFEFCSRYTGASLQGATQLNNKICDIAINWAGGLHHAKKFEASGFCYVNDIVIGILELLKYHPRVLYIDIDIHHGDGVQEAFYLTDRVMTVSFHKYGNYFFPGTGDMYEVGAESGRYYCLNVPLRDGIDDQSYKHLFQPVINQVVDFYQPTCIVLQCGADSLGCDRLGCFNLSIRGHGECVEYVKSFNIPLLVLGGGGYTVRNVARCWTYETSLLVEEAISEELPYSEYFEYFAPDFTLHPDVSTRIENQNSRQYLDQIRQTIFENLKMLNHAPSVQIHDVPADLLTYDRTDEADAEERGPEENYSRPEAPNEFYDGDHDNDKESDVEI
# [4] = target: T1, Protein deacetylase HDAC6 (Homo sapiens, UniProt Q9UBN7); assay: Inhibition of human recombinant HDAC 6 by HDAC-Glo luminescent assay
# T1 sequence (Q9UBN7 whole entry): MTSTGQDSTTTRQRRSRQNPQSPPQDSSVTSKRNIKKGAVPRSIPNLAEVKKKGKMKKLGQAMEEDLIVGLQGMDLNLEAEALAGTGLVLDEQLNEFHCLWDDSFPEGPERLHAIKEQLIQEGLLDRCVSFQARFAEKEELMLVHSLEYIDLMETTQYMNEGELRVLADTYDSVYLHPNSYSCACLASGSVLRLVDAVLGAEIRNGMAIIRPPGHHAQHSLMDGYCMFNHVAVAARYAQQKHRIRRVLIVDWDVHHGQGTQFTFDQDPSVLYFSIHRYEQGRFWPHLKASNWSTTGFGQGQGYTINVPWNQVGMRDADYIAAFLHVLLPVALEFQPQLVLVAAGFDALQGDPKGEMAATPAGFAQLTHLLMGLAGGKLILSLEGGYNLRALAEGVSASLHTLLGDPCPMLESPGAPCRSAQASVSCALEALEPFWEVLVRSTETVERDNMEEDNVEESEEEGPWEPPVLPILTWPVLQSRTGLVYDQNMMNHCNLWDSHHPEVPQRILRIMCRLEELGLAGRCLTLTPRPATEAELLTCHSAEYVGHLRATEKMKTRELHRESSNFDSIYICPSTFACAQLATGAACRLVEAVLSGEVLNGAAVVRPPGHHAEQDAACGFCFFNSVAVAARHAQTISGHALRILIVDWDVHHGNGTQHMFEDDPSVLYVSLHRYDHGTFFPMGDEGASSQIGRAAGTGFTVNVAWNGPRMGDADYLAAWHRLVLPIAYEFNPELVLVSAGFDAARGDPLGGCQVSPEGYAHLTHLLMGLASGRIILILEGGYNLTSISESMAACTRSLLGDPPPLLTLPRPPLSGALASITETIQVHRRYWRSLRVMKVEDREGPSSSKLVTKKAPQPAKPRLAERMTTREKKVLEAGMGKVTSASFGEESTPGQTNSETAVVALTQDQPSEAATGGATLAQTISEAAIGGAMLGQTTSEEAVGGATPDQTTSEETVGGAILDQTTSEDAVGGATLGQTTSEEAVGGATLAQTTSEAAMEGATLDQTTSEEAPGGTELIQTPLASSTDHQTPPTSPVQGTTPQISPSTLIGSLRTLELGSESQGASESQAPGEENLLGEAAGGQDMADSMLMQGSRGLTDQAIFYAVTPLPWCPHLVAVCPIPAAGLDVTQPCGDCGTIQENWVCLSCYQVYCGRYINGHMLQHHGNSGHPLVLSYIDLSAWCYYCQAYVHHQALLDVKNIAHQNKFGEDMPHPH
# [5] = HuH7 cells (CC50) and HCV-infected HuH7-luc/neo cells (EC50)
Structure (SMILES),EC50 (Hepatitis C virus) [µM],inhibition [3],IC50 [4] [µM],CC50 at 72 h [1] [µM],selectivity ratio [2],"selectivity ratio [2, 5]"
O=C(/C=C/c1ccccc1)NO,2,,,20,10,
CNNC(=O)c1ccccc1,,,,> 1000,,
Cc1nc2ccccc2n1Cc1ccc(C(=O)NO)cc1,0.27,,,7.9,,29
O=C(NCC1(c2nc(-c3ccccc3)cs2)CCOCC1)c1cccc(-c2noc(C(F)(F)F)n2)c1,4.5,Active,,83,18,
CCCNNC(=O)c1ccccc1,5.5,,,120,,22
CCCNNC(=O)/C=C/c1cccc(S(=O)(=O)Nc2ccccc2)c1,0.55,,,0.68,,1.2
CCNNC(=O)c1ccccc1,,,,> 1000,,
O=C(NO)C1c2ccccc2Oc2ccccc21,0.75,,,300,,400
O=C(CCCCCCC(=O)Nc1ccccc1)NO [VORINOSTAT],,,,0.64,,
O=C(CCc1ccccc1)NO,5.2,,,110,,21
CCCNNC(=O)c1ccc(-c2ccccc2)cc1,1.5,,,5.9,,3.9
CCCNNC(=O)CCc1ccccc1,3.8,,,96,,25
O=C(/C=C/c1cccc(S(=O)(=O)Nc2ccccc2)c1)NO [BELINOSTAT],0.19,,,0.65,,
CCCNNC(=O)C1c2ccccc2Oc2ccccc21,,,,> 300,,
CCCNNC(=O)CCCCCCC(=O)Nc1ccccc1,1.3,,,7,,5.4

# The next lines start with results.
EC50 (Hepatitis C virus) [µM],inhibition [3],IC50 [4] [µM],Structure (SMILES),CC50 at 72 h [1] [µM],selectivity ratio [2],"selectivity ratio [2, 5]"
0.4,,,O=C(NO)c1ccc(-c2ccccc2)cc1,30,,75
0.025,,,CCCNNC(=O)c1ccc(Cn2c(C)nc3ccccc32)cc1,9.9,,400
0.24,,,CCCNNC(=O)c1ccc(Cn2c3c(c4ccccc42)CN(C)CC3)cc1,5.3,,22
0.3,,,CN1CCc2c(c3ccccc3n2Cc2ccc(C(=O)NO)cc2)C1 [TUBASTATIN A],[…],[…],
,,30,N[C@H](Cc1ccc(Cl)cc1Cl)C(=O)N1Cc2ccccc2C1,,,
5.4,,,CCCNNC(=O)/C=C/c1ccccc1,18,,3.3
